Measurements: patent US20080109040A1, “METHOD OF TREATING ARRHYTHMIAS” (priority 2002, published 2008)
Read-outs that look alike come from different tables or passages of the source.

Legend:
[1] = biological target: T1, rapidly activating component of the delayed rectifier current (IKr) (Canis lupus familiaris, UniProt Q9TSZ3); assay: Whole cell voltage clamp of IKr tail current in isolated canine left ventricular myocytes; format: cell-based
T1 construct: Myocytes were isolated by enzymatic dissociation from a wedge-shaped section of the left ventricular free wall; endogenous in cells; host or cells: isolated canine left ventricular myocytes (epicardial and midmyocardial)
T1 sequence (Q9TSZ3 1-1158): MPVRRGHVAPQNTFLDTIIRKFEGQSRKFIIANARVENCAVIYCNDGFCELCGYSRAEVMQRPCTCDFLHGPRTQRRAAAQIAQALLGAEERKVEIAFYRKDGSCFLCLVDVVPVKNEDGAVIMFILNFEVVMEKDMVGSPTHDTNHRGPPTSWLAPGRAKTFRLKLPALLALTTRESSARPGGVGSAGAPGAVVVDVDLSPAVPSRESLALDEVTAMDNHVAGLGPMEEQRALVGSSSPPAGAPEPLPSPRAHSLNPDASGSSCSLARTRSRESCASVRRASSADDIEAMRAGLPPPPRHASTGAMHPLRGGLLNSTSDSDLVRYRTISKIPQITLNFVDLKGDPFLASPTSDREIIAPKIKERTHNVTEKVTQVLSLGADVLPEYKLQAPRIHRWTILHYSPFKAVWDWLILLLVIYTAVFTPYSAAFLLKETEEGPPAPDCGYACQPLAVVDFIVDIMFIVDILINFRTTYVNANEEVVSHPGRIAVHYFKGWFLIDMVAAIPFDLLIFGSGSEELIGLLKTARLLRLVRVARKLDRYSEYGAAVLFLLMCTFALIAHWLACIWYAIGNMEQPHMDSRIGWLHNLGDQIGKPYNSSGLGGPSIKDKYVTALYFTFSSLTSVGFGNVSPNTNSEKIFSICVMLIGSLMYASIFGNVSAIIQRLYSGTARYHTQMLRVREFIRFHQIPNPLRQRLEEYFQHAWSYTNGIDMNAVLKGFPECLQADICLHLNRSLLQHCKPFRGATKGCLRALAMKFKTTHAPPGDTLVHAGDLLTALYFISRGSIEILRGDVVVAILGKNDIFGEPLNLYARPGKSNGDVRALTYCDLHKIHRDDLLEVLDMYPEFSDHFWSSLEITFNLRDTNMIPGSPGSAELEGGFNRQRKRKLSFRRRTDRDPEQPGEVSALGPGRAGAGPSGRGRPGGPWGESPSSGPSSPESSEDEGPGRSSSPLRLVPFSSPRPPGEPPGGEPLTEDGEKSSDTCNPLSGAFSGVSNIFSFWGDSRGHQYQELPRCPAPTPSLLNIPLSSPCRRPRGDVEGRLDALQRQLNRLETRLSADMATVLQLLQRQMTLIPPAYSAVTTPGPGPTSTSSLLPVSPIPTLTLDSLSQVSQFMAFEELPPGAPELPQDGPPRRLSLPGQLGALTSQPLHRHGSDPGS
Experimental: Myocytes were isolated by enzymatic dissociation from a wedge-shaped section of the left ventricular free wall supplied by the left circumflex coronary artery. Cells from the epicardial and midmyocardial regions of the left ventricle were used in this study.
Inward rectifier potassium current (IK), slow delayed rectifier potassium current (IKs), and rapid delayed rectifier potassium current (IKr) were recorded at 37° C. using conventional whole cell voltage clamp configuration.
IK1 was measured using an external solution containing 3 μM ouabain and 5 μM nifedipine to block the sodium-potassium pump and L-type calcium current (ICa,L), respectively. […] 5 μM nifedipine was present in the external solution when IKr was being recorded.
Isolated myocytes were placed in a temperature controlled 0.5 ml chamber (Medical Systems, Greenvale, N.Y.) on the stage of an inverted microscope and superfused at a rate of 2 ml/min. […]
IKr was measured as the time-dependent tail current elicited at a potential of −40 mV following a short 250 ms depolarizing pulse to 30 mV. Data are presented as mean ±S.E.M. IK1 was recorded during 900 msec voltage steps applied from a holding potential of −40 mV to test potentials ranging from −100 mV to 0 mV, and was characterized as the 5 msec average of the steady state current at the end of the test pulse.

[2] = biological target: late INa (Canis lupus familiaris, UniProt Q865W3); assay: Late INa during action potential voltage clamp in canine midmyocardial myocytes; format: cell-based
Chain of late INa (Q865W3 1-2013): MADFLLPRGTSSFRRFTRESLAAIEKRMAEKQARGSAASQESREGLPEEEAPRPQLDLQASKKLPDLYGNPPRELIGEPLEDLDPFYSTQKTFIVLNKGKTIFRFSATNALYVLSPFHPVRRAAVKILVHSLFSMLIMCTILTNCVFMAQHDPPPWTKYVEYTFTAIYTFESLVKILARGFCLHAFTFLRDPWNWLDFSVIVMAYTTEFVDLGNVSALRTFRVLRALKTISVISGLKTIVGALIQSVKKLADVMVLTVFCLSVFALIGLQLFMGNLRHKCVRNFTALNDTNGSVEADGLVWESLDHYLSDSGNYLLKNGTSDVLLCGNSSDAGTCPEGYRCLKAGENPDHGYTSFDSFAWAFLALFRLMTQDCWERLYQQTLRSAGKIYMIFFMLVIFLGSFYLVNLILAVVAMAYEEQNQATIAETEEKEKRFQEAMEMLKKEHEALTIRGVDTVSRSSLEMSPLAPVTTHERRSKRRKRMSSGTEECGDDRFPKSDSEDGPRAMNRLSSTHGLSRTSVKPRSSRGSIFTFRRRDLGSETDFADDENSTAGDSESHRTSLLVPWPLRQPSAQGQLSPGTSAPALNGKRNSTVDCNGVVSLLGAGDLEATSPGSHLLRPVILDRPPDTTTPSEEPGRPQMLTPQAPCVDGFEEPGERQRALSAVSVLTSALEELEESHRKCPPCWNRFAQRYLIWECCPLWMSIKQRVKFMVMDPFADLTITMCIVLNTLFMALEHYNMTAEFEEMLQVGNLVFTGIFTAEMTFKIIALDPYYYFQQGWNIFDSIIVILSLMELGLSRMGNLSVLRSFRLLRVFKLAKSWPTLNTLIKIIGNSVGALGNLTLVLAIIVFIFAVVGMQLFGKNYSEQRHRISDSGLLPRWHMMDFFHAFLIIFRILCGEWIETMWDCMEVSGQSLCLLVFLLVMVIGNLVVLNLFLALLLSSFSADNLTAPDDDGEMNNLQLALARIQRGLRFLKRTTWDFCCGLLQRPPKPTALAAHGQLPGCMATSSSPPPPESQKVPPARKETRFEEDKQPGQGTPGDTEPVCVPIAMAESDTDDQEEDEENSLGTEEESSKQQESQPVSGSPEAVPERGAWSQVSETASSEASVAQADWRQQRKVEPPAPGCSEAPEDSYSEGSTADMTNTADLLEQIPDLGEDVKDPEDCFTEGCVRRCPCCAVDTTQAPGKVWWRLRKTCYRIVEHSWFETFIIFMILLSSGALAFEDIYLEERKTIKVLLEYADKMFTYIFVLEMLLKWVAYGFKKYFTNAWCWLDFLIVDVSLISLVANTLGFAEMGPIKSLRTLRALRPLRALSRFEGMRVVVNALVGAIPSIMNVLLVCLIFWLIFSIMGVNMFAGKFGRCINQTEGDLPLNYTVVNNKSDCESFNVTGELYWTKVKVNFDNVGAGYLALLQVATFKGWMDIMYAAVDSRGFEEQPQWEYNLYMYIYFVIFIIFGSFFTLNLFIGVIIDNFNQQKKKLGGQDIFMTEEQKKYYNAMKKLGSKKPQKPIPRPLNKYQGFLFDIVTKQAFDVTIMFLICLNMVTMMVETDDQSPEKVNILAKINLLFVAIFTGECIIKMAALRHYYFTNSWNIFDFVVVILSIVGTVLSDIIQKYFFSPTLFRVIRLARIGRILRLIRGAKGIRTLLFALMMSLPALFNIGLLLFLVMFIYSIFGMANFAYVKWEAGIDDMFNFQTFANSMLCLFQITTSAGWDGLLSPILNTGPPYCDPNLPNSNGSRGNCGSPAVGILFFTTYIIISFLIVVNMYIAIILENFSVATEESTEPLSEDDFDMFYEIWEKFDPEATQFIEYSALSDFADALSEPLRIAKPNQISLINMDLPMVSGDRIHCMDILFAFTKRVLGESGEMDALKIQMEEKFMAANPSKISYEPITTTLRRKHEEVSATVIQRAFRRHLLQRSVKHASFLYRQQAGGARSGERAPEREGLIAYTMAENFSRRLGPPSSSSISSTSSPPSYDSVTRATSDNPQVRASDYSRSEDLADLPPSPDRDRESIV

SMILES: COc1ccccc1OCC(O)CN1CCN(CC(=O)Nc2c(C)cccc2C)CC1 (racemic) [ranolazine, N-(2,6-dimethylphenyl)-4-[2-hydroxy-3-(2-methoxyphenoxy)propyl]-1-piperazineacetamide]
- Block of IKr ([1]; ranolazine 50 μM): almost completely blocked
- IC50 ([1]; tail current at −40 mV after 250 msec pulse to 30 mV, read-out: IC50 for inhibition of IKr tail current): 11.5 µM
- IC50 ([2]; BCL 2000 ms, first value (plateau, 20 mV), read-out: Half-inhibition of late INa): 5.9 µM
- IC50 ([2]; BCL 2000 ms, second value (−28 mV), read-out: Half-inhibition of late INa): 20.8 µM
- IC50 ([2]; basic cycle length 300 ms, read-out: Half-inhibition of INa,late): 11.5 µM
- IC50 ([2]; basic cycle length 2000 ms, read-out: Half-inhibition of INa,late): 20.8 µM
